Experimental data taken from paper PMC5537355, “Structures and transport dynamics of a Campylobacter jejuni multidrug efflux pump” (Nature Communications, 2017).

What was measured:
[1] = molecular target: T1, CmeB (Campylobacter jejuni, UniProt Q8RTE4); assay: isothermal titration calorimetry; format: binding; conditions: 20 mM Na-HEPES pH 7.5, 0.03% DDM, room temperature; 20 μM monomer in cell; no cyclooctatetraene
T1 construct: full-length, N-terminal 6xHis (pET15b), E. coli BL21(DE3)deltaacrB host; homotrimer

[2] = molecular target: Campylobacter jejuni CmeB multidrug efflux pump (Campylobacter jejuni) (UniProt Q8RTE4); assay: crystal structure

Compound	KD [1]	stoichiometry N [2]
C[C@H](CCC(=O)NCCS(=O)(=O)O)[C@H]1CC[C@H]2[C@@H]3CC[C@@H]4C[C@H](O)CC[C@]4(C)[C@H]3C[C@H](O)[C@]12C [taurodeoxycholate]	examine the binding of taurodeoxycholate to the purified CmeB transporter	
Campylobacter jejuni CmeB multidrug efflux pump (from UniProt Q8RTE4) (natural protein)		3
